This is an account of results in US20250345295A1, “LMK235 COMPOSITIONS AND METHODS” (UNM Rainforest Innovations, priority 2024, published 2025).

“Also recorded” adds a separate entry of the source.

The term IC50 denotes the midpoint of a concentration-inhibition curve.

The target in experiment [1] is HDAC 5 (Homo sapiens, UniProt Q9UQL6). The conditions noted are these: cited from earlier work.
Experiment [2] concerns small (<30 μm) TG neurons from naïve mice. Kind of experiment: Whole-cell patch-clamp electrophysiology, TG neurons from naïve mice. Format: cell-based, mouse. The conditions noted are these: 13 μM for one hour vs 0.1% DMSO. How it is done:
The excitability of TG neurons is directly linked to the pathophysiology of trigeminal neuropathic pain. In order to determine the effect of LMK235 on TG neurons from FRICT-ION mice, whole-cell patch-clamp electrophysiological recordings were made from small (<30 μm) TG neurons in the presence of LMK235 (13 μM) or vehicle (0.1% DMSO). TG neurons were obtained from FRICT-ION mice at three weeks post injury or naïve mice. The TG neurons were treated for one hour in vitro with either LMK235 or vehicle control prior to recording (FIG. 7).
Neurons with a diameter of <30 μm were identified by infrared differential interference contrast (IR-DIC) imaging with a microscope connected to an Olympus digital camera. Current clamp recordings were performed using a Molecular Devices Multiclamp 700B (Scientifica, UK). Signals were filtered at 5 KHz, acquired at 50 KHz using a Molecular Devices 1550B converter (Scientifica, UK) and recorded using Clampex 11 software (Molecular Devices, Scientifica, UK). Electrodes were pulled with a Zeitz puller (Werner Zeitz, Martinsreid, Germany) from borosilicate thick glass (GC150F, Sutter Instruments). Electrode resistance was 5-8 MΩ. Bridge balance was applied to all recordings. Intracellular solution contained (in mM) 125 K-gluconate, 6 KCl, 10 HEPES, 0.1 EGTA, 2 Mg-ATP, pH 7.3 with KOH, and osmolarity of 290-310 mOsm. Artificial cerebrospinal fluid (aCSF) contained (in mM) 113 NaCl, 3 KCl, 25 NaHCO3, 1 NaH2PO4, 2 CaCl2), 2 MgCl2, and 11-glucose. For whole-cell current clamp recordings, to evaluate the basic input-output action potential frequency response to hyperpolarization and depolarization, DC current was injected from 0 pA to +200 pA in 10-pA increments for a duration of 500 milliseconds at the cell's intrinsic resting membrane potential. Data acquisition was sampled at 20 kHz and filtered at 2.4 kHz. Recordings with a series resistance greater than 20 MΩ were discarded, and series resistance was compensated to 70%. In response to a −100 pA hyperpolarizing pulse with 500 millisecond duration, voltage sag amplitude was measured. Sag ratio was calculated using the following equation as described previously (Fan et al., Front Cell Neurosci 2016 Mar. 24; 10:74):
where Vpeak is the maximum voltage deflection and Vss is the steady state voltage at the end of the hyperpolarizing pulse.
Male mice were euthanized three weeks after inducing the FRICT-ION model. The TG were dissected, minced, and dissociated in an enzymatic combination containing sterile, calcium-free, and magnesium-free HBSS (Cat #14170112, Gibco), papain suspension (32.7 U/mgP, Cat #LS003126; Worthington, Lakewood, NJ), L-Cysteine (Cat #C7352-25g, Sigma), and saturated bicarbonate (Cat #S5761-500g, Sigma) solution. […]
On the technique in general: Patch clamp records ionic current or voltage across a cell membrane.

The test system of experiment [3] is BALBc mice with FRICT-ION nerve injury. Kind of experiment: von Frey mechanical threshold, FRICT-ION trigeminal nerve injury model. Type of experiment: in vivo, mouse. The conditions noted are these: male and female BALBc FRICT-ION mice, 5 mg/kg s.c. daily in week 3, vs vehicle. The source says:
The FRICT-ION chronic neuropathic pain model combines the chemical irritation of chromic gut suture with some physical compression of the maxillary branch (V2) of the trigeminal nerve. FRICT-ION model was induced in 9-week-old mice anesthetized briefly with isoflurane (2-3%). Intraoral surgical incision was made with a small scalpel puncture at the buccal cheek crease. A piece of chromic gut suture (3 mm length, 4-0) was placed parallel to the infraorbital nerve (ION) and pushed into the tight space to follow the trigeminal nerve as it passes into the foramen rotundum of the skull. The model simulates blunt force traumatic injury to the nerve, residual wound debris, or other irritation. […]
[…] Withdrawal thresholds were determined weekly with von Frey fiber stimulation on the snout. […]
Mechanical and cold sensitivity was modified for face as previously described (Montera M A, Westlund K N, Bio-protocol2020 April 20; 10(8):e3591-e3591; Lyons et al., Neuroscience 2015 Jun. 4; 295:126-138; Ma et al., Mol Brain 2012 Dec. 28; 5:44; Montera et al., Channels (Austin). 2021 December; 15(1):31-37). Briefly, animals were gently restrained and the mechanical threshold for nocifensive head withdrawal was determined using calibrated von Frey filaments (0.008 g-6.0 g) using the Up-Down method (Chaplan et al., J Neurosci Methods 1994 July; 53(1):55-63; FIG. 2). […]

Sequence of HDAC 5 (Q9UQL6 whole entry, species assumed): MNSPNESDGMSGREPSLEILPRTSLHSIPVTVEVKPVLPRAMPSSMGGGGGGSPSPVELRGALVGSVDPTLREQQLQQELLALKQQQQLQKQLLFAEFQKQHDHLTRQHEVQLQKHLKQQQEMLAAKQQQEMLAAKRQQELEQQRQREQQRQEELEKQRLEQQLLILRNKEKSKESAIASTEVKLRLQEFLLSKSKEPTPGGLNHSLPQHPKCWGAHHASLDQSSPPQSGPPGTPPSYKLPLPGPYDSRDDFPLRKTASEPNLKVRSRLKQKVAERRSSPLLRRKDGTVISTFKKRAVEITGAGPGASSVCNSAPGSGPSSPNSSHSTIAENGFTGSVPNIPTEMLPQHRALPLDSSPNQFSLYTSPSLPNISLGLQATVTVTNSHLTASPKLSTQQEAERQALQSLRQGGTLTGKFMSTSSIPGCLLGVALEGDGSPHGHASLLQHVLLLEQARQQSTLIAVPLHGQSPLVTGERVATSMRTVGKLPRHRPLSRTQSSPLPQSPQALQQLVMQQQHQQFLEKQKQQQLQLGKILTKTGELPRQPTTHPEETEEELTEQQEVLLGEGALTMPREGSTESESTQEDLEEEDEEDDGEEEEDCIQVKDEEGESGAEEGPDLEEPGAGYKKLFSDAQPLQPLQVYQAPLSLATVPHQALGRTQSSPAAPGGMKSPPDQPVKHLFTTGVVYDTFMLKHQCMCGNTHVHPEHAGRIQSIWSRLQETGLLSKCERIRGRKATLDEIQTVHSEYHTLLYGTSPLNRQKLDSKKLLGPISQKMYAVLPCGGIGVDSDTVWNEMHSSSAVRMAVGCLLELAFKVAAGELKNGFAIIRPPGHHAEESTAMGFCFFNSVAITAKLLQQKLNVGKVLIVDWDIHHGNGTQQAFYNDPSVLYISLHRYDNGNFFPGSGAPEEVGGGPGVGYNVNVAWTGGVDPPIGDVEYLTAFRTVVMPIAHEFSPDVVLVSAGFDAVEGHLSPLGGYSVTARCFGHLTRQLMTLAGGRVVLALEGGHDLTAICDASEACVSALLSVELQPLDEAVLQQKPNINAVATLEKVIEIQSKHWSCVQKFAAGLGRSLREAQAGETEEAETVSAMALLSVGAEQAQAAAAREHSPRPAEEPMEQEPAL

On to `Cc1cc(C)cc(C(=O)NOCCCCCC(=O)NO)c1` [LMK235, N-[[6-(Hydroxyamino)-6-oxohexyl]oxy]-3,5-dimethyl-benzamide], for which the IC50 in experiment [1] was 4 nM. Further, in experiment [2], the electrophysiological properties result is listed as “not significantly altered”, the “resting membrane potential (RMP)” value was “no significant differences”, the rheobase entry is on record as “no significant differences” and the sag ratio entry is on record as “no effect”. Besides, the “mechanical threshold / von Frey hypersensitivity” value in experiment [3] was “reverses von Frey hypersensitivity; also recorded: restored mechanical threshold to baseline”.
